Assay results published in patent publication US10647713B2 (Nimbus Lakshmi, Inc., priority 2016, dated 2020).

Biological target: human TYK2 (JH2domain-pseudokinase) (Homo sapiens (Human), UniProt P29597)
Experiment: TYK2 JH2 Domain Binding Assay (KINOMEscan, DiscoveRx)
Conditions: 11-point dilution, duplicate
Procedure, shortened: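 Kd from duplicate 11-point 3-fold dilutions starting at 30,000 nM, fitted by Hill equation with slope fixed at −1. Compounds (final 0.9% DMSO) displace DNA-tagged HEK293-expressed TYK2 JH2 fusion (<0.1 nM) from ligand-coated beads over 1 h at room temperature; eluted kinase read by qPCR.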

Chain of human TYK2 (JH2domain-pseudokinase) (P29597 556-888): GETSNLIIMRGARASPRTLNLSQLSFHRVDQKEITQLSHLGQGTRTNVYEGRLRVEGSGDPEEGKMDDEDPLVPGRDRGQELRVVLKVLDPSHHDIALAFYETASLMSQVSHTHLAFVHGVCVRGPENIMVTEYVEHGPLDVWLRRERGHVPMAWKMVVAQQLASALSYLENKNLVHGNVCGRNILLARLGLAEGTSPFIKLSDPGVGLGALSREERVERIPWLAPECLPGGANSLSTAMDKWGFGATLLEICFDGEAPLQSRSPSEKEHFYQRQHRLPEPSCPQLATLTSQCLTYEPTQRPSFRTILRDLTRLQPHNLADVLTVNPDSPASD

`COc1c(Nc2cc(Nc3ccc(C(=O)N4CCCC4)c(C(F)(F)F)n3)nc3[nH]c(C)nc23)cccc1-c1nnn(C)n1` [I-108, (6-((7-((2-methoxy-3-(2-methyl-2H-tetrazol-5-yl)phenyl)amino)-2-methyl-3H-imidazo[4,5-b]pyridin-5-yl)amino)-2-(trifluoromethyl)pyridin-3-yl)(pyrrolidin-1-yl)methanone] and `COc1c(Nc2cc(Nc3ccc(N4CCC4)c(C#N)n3)nc3[nH]c(C)nc23)cccc1-c1nnn(C)n1` [I-113, 3-(azetidin-1-yl)-6-((7-((2-methoxy-3-(2-methyl-2H-tetrazol-5-yl)phenyl)amino)-2-methyl-3H-imidazo[4,5-b]pyridin-5-yl)amino)picolinonitrile] fall in the same range of Kd: 0.1 to 0.5 nM for the first, 0.1 to 0.5 nM for the second.

`COc1c(Nc2cc(Nc3ccc(N4CCCC4=O)c(C#N)n3)nc3[nH]c(C)nc23)cccc1-c1nnn(C)n1` [I-109, 6-((7-((2-methoxy-3-(2-methyl-2H-tetrazol-5-yl)phenyl)amino)-2-methyl-3H-imidazo[4,5-b]pyridin-5-yl)amino)-3-(2-oxopyrrolidin-1-yl)picolinonitrile] and `COc1c(Nc2cc(Nc3ccc(N4CC[C@H](OC)C4)c(C#N)n3)nc3[nH]c(C)nc23)cccc1-c1nnn(C)n1` [I-112, (S)-6-((7-((2-methoxy-3-(2-methyl-2H-tetrazol-5-yl)phenyl)amino)-2-methyl-3H-imidazo[4,5-b]pyridin-5-yl)amino)-3-(3-methoxypyrrolidin-1-yl)picolinonitrile] fall in the same range of Kd: 0.1 to 0.5 nM for the first, 0.1 to 0.5 nM for the second.

`COc1cc(C(=O)N2CCCC2)ccc1Nc1cc(NC(=O)C2CC2)nc2[nH]c(C)nc12` [I-110, N-(7-((2-methoxy-4-(pyrrolidine-1-carbonyl)phenyl)amino)-2-methyl-3H-imidazo[4,5-b]pyridin-5-yl)cyclopropanecarboxamide] and `Cc1nc2c(Nc3ccc(N4CCC4)cc3N(C)S(C)(=O)=O)cc(NC(=O)C3CC3)nc2[nH]1` [I-129, N-(7-((4-(azetidin-1-yl)-2-(N-methylmethylsulfonamido)phenyl)amino)-2-methyl-3H-imidazo[4,5-b]pyridin-5-yl)cyclopropanecarboxamide] fall in the same range of Kd: 1 to 10 nM for the first, 1 to 10 nM for the second.

`COc1c(Nc2cc(Nc3cnc(C)c(C#N)n3)nc3[nH]c(C)nc23)cccc1-c1nnn(C)n1` [I-111, 6-((7-((2-methoxy-3-(2-methyl-2H-tetrazol-5-yl)phenyl)amino)-2-methyl-3H-imidazo[4,5-b]pyridin-5-yl)amino)-3-methylpyrazine-2-carbonitrile] and `COc1c(Nc2cc(Nc3ccc(C(C)C)c(C#N)n3)nc3[nH]c(C)nc23)cccc1-c1nnn(C)n1` [I-115, 3-isopropyl-6-((7-((2-methoxy-3-(2-methyl-2H-tetrazol-5-yl)phenyl)amino)-2-methyl-3H-imidazo[4,5-b]pyridin-5-yl)amino)picolinonitrile] fall in the same range of Kd: 1 to 10 nM for the first, 1 to 10 nM for the second.

`COc1c(Nc2cc(NC(=O)C3CC3)nc3[nH]c(C)nc23)cccc1-c1nc(C)nn1C` [I-114, N-(7-((3-(1,3-dimethyl-1H-1,2,4-triazol-5-yl)-2-methoxyphenyl)amino)-2-methyl-3H-imidazo[4,5-b]pyridin-5-yl)cyclopropanecarboxamide] and `COc1c(Nc2cc(NC(=O)C3CC3)nc3[nH]c(C)nc23)cccc1-c1nn(C)nc1C` [I-133, N-(7-((3-(2,5-dimethyl-2H-1,2,3-triazol-4-yl)-2-methoxyphenyl)amino)-2-methyl-3H-imidazo[4,5-b]pyridin-5-yl)cyclopropanecarboxamide] fall in the same range of Kd: 1 to 10 nM for the first, 1 to 10 nM for the second.

`COc1c(Nc2cc(Nc3cnc(N4CCOCC4)c(C#N)n3)nc3[nH]c(C)nc23)cccc1-c1nnn(C)n1` [I-116, 6-((7-((2-methoxy-3-(2-methyl-2H-tetrazol-5-yl)phenyl)amino)-2-methyl-3H-imidazo[4,5-b]pyridin-5-yl)amino)-3-morpholinopyrazine-2-carbonitrile] and `COc1c(Nc2cc(Nc3cnc(N4CC[C@@H](OC)C4)c(C#N)n3)nc3[nH]c(C)nc23)cccc1-c1nnn(C)n1` [I-117, (R)-6-((7-((2-methoxy-3-(2-methyl-2H-tetrazol-5-yl)phenyl)amino)-2-methyl-3H-imidazo[4,5-b]pyridin-5-yl)amino)-3-(3-methoxypyrrolidin-1-yl)pyrazine-2-carbonitrile] fall in the same range of Kd: 1 to 10 nM for the first, 1 to 10 nM for the second.

`Cc1ccc(Nc2cc(Nc3ccccc3N(C)S(C)(=O)=O)c3nc(C)[nH]c3n2)nn1` [I-118, N-methyl-N-(2-((2-methyl-5-((6-methylpyridazin-3-yl)amino)-3H-imidazo[4,5-b]pyridin-7-yl)amino)phenyl)methanesulfonamide] and `Cc1nc2c(Nc3ccccc3N(C)S(C)(=O)=O)cc(Nc3ccc(C)c(C#N)n3)nc2[nH]1` [I-125, N-(2-((5-((6-cyano-5-methylpyridin-2-yl)amino)-2-methyl-3H-imidazo[4,5-b]pyridin-7-yl)amino)phenyl)-N-methylmethanesulfonamide] fall in the same range of Kd: 0.1 to 0.5 nM for the first, 0.1 to 0.5 nM for the second.

First: Cc1nc2c(Nc3ccccc3N(C)S(C)(=O)=O)cc(Nc3cccc(C#N)n3)nc2[nH]1 [I-120, N-(2-((5-((6-cyanopyridin-2-yl)amino)-2-methyl-3H-imidazo[4,5-b]pyridin-7-yl)amino)phenyl)-N-methylmethanesulfonamide]
Second: Cc1nc2c(Nc3ccc(Cl)cc3N(C)S(C)(=O)=O)cc(Nc3cccc(C#N)n3)nc2[nH]1 [I-134, N-(5-chloro-2-((5-((6-cyanopyridin-2-yl)amino)-2-methyl-3H-imidazo[4,5-b]pyridin-7-yl)amino)phenyl)-N-methylmethanesulfonamide]
The Kd of the first is lower: less than 0.1 nM for the first, 0.1 to 0.5 nM for the second. The first binds more tightly here.

Compared with `COC1CN(c2ccc(Nc3cc(NC(=O)C4CC4)nc4[nH]c(C)nc34)c(N(C)S(C)(=O)=O)c2)C1` [I-122, N-(7-((4-(3-methoxyazetidin-1-yl)-2-(N-methylmethylsulfonamido)phenyl)amino)-2-methyl-3H-imidazo[4,5-b]pyridin-5-yl)cyclopropanecarboxamide], `Cc1ccc(Nc2cc(NC(=O)C3CC3)nc3[nH]c(C)nc23)c(N(C)S(C)(=O)=O)c1` [I-131, N-(2-methyl-7-((4-methyl-2-(N-methylmethylsulfonamido)phenyl)amino)-3H-imidazo[4,5-b]pyridin-5-yl)cyclopropanecarboxamide] is lower in Kd: 1 to 10 nM for the first, 0.5 to 1 nM for the second. The second binds more tightly here.

First: Cc1nc2c(Nc3ccccc3N(C)S(C)(=O)=O)cc(Nc3cnc(C)c(C)n3)nc2[nH]1 [I-123, N-(2-((5-((5,6-dimethylpyrazin-2-yl)amino)-2-methyl-3H-imidazo[4,5-b]pyridin-7-yl)amino)phenyl)-N-methylmethanesulfonamide]
Second: Cc1nc2c(Nc3ccc(Cl)cc3N(C)S(C)(=O)=O)cc(Nc3cnc(C)c(C)n3)nc2[nH]1 [I-130, N-(5-chloro-2-((5-((5,6-dimethylpyrazin-2-yl)amino)-2-methyl-3H-imidazo[4,5-b]pyridin-7-yl)amino)phenyl)-N-methylmethanesulfonamide]
The Kd of the first is lower: 0.1 to 0.5 nM for the first, 0.5 to 1 nM for the second. The first binds more tightly here.

`Cc1cc(Nc2cc(Nc3ccccc3N(C)S(C)(=O)=O)c3nc(C)[nH]c3n2)nc(C)n1` [I-124, N-(2-((5-((2,6-dimethylpyrimidin-4-yl)amino)-2-methyl-3H-imidazo[4,5-b]-pyridin-7-yl)amino)phenyl)-N-methylmethanesulfonamide] and `Cc1ccc(Nc2cc(Nc3cnc(C)c(C)n3)nc3[nH]c(C)nc23)c(N(C)S(C)(=O)=O)c1` [I-132, N-(2-((5-((5,6-dimethylpyrazin-2-yl)amino)-2-methyl-3H-imidazo[4,5-b]pyridin-7-yl)amino)-5-methylphenyl)-N-methylmethanesulfonamide] fall in the same range of Kd: 0.1 to 0.5 nM for the first, 0.1 to 0.5 nM for the second.

First: Cc1nc2c(Nc3ccc(Cl)cc3S(C)(=O)=O)cc(NC(=O)C3CC3)nc2[nH]1 [I-126, N-(7-((4-chloro-2-(methylsulfonyl)phenyl)amino)-2-methyl-3H-imidazo[4,5-b]pyridin-5-yl)cyclopropanecarboxamide]
Second: COc1c(Nc2cc(NC(=O)C3CC3)nc3[nH]c(C)nc23)cccc1-n1cnc(C)n1 [I-128, N-(7-((2-methoxy-3-(3-methyl-1H-1,2,4-triazol-1-yl)phenyl)amino)-2-methyl-3H-imidazo[4,5-b]pyridin-5-yl)cyclopropanecarboxamide]
The Kd of the first is lower: 0.1 to 0.5 nM for the first, 1 to 10 nM for the second.

Compared with `Cc1nc2c(Nc3ccccc3N(C)S(C)(=O)=O)cc(Nc3cccc(C(F)(F)F)n3)nc2[nH]1` [I-127, N-methyl-N-(2-((2-methyl-5-((6-(trifluoromethyl)pyridin-2-yl)amino)-3H-imidazo[4,5-b]pyridin-7-yl)amino)phenyl)methanesulfonamide], `Cc1ccn(-c2ccc(Nc3cc(NC(=O)C4CC4)nc4[nH]c(C(F)F)nc34)c(N(C)S(C)(=O)=O)c2)n1` [I-139, N-(2-(difluoromethyl)-7-((4-(3-methyl-1H-pyrazol-1-yl)-2-(N-methylmethylsulfonamido)phenyl)amino)-3H-imidazo[4,5-b]pyridin-5-yl)cyclopropanecarboxamide] is higher in Kd: 0.1 to 0.5 nM for the first, 0.5 to 1 nM for the second.

First: Cc1cnn(-c2ccc(Nc3cc(NC(=O)C4CC4)nc4[nH]c(C(F)F)nc34)c(N(C)S(C)(=O)=O)c2)c1 [I-135, N-(2-(difluoromethyl)-7-((4-(4-methyl-1H-pyrazol-1-yl)-2-(N-methylmethylsulfonamido)phenyl)amino)-3-imidazo[4,5-b]pyridin-5-yl)cyclopropanecarboxamide]
Second: COc1ccccc1Nc1cc(Nc2ccc(N3CCC4(CCOCC4)CC3)cn2)nc2[nH]c(C(F)F)nc12 [I-136, N5-(5-(3-oxa-9-azaspiro[5.5]undecan-9-yl)pyridin-2-yl)-2-(difluoromethyl)-N7-(2-methoxyphenyl)-3H-imidazo[4,5-b]pyridine-5,7-diamine]
The Kd of the first is lower: 0.1 to 0.5 nM for the first, greater than 10 nM for the second.

Compound `COc1c(Nc2cc(Nc3cnc(C(C)(C)OC)c(C)n3)nc3[nH]c(C)nc23)cccc1-c1nnn(C)n1` [I-138, N7-(2-methoxy-3-(2-methyl-2H-tetrazol-5-yl)phenyl)-N5-(5-(2-methoxypropan-2-yl)-6-methylpyrazin-2-yl)-2-methyl-3H-imidazo[4,5-b]pyridine-5,7-diamines] has a Kd of 1 to 10 nM.
